Assay results from patent publication US20070287689A1, “Therapeutic And/Or Preventive Agents For Chronic Skin Diseases” (KYOWA HAKKO KOGYO CO., LTD., priority 2004, published 2007).
Marks after values point to notes of the source that are not given here.

Legend:
[1] = system: delayed-type allergic reaction in the skin; details: animal model; Non-patent Document 1; cited from earlier work
[2] = system: chronic dermatitis models; details: Non-patent Document 2; cited from earlier work
[3] = system: oxazolone-induced ear swelling; test: Inhibitory effects on oxazolone-induced ear swelling in mice (Test Example 2); type: in vivo; details: dose 1.2 μg/site, 0.03 mg/mL in acetone applied to inner and outer side of the ear 3 hours before and 2 hours after inducing the reaction, ear thickness 24 hours after induction, BALB/c mice
Procedure: Six-week-old BALB/c mice (male, Charles River Japan, Inc.) were purchased. […] The mice were placed in plastic cages (6 mice per cage) in a breeding room which was kept at a room temperature (19 to 25° C.) and a humidity of 30 to 70% and was illuminated for 12 hours a day (from 7:00 a.m. to 7:00 p.m.). The mice were allowed to freely intake commercially available pellets and water.
As an antigen solution, Oxazolone (Sigma-Aldrich) was dissolved in acetone (Kanto Kagaku) to prepare 0.5 w/v % of oxazolone-acetone solution. BALB/c mice were each applied with 100 μL of the antigen solution to the shaved abdomen for sensitization. Mice were shaved on abdomen on the previous day of the sensitization. […] Ear thickness was measured with a dial thickness gauge (Ozaki Seisakusho) just before and 24 hours after inducing the reaction, and the difference in the thickness was used as an indication of ear swelling. The inhibition ratio (%) against ear swelling was calculated using the following: Inhibition ratio (%)=[{(value in positive control group)−(value in test compound administration group)}/{(value in positive control group)−(value in negative control group)}]×100 Test compound administration group: Compound (I) administration group, prednisolone administration group or combined administration group

Structure (SMILES)	Effect on delayed-type allergic reaction in the skin [1]	Therapeutic effects on chronic dermatitis models [2]	Inhibition Ratio (ear swelling) [3]	Inhibition Ratio (ear swelling) ([3]; listed as Predonisolone)
COc1ccc([C@]2(C#N)CC[C@@H](C(=O)O)CC2)cc1OC1CCCC1 [SB207499]	inhibit a delayed-type allergic reaction in the skin	exhibit therapeutic effects	–	–
C[C@]12C=CC(=O)C=C1CC[C@@H]1[C@@H]2[C@@H](O)C[C@@]2(C)[C@H]1CC[C@]2(O)C(=O)CO [prednisolone]	–	–	18%	18%***
